# Reference: ChEMBL document CHEMBL1135097, “New readily accessible peroxides with high anti-malarial potency” (Bioorg Med Chem Lett, 2002)
# Assays:
# [1] = test system: KB 3-1; assay: Compound was tested for cytotoxicity against human epidermoid carcinoma KB 3-1; type: functional, cell-based
# [2] = test system: Plasmodium falciparum; assay: Antimalarial activity against Plasmodium falciparum; type: functional, organism-based
# [3] = (§1) Selective toxicity index between parasite and cells of host-animals, human epidermoid carcinoma KB 3-1; type: organism-based; details: KB 3-1 human epidermoid carcinoma cells
# [4] = species: Homo sapiens; assay: as §1; type: organism-based
SMILES,"IC50 ([1]; Homo sapiens, KB 3-1) [nM]",IC50 ([2]; Plasmodium falciparum) [nM],selectivity ratio [3],IC50 ([1]; kb 3-1) [nM],IC50 [2] [nM],Ratio [4]
"CC/C=C/C=C/CC[C@]1(OC)CC[C@@H](C(C)C(=O)OC)OO1 (single isomer, unassigned)",21000,150,140,–,–,–
CCCCCCCCCCCCCCCC[C@@]1(OC)C=C[C@@H](CC(=O)OC)OO1 [CHONDRILLIN],630,> 240,< 2.6,–,–,–
CCCCCCCCC[C@]1(OC)CC[C@@H](CC(=O)OC)OO1,4400,170,26,–,–,–
CCCCCCCCCC1(OC)CCC(CC(=O)OC)OO1 (centres undefined),4400,140,31,–,–,–
"CCCCCC1(OC)CCC(CC(=O)OC)OO1 (single isomer, unassigned; (+))",–,–,–,77000,220,350
CC/C=C/C=C/CC[C@]1(OC)CC[C@H]([C@@H](C)C(=O)OC)OO1,28000,120,230,–,–,–
CCCCCCCCC[C@]1(OC)CC[C@H](CC(=O)OC)OO1 (relative stereo),2200,260,8,–,–,–
CCCCC[C@]1(OC)CC[C@H](CC(=O)OC)OO1,23000,150,150,–,–,–
"CCCCCC1(OC)CCC(CC(=O)OC)OO1 (single isomer, unassigned; (-))",–,–,–,82000,–,370
COC(=O)CC1CCC(C)(OC)OO1 (centres undefined),> 490,> 2400,–,–,–,–
CCCCC[C@]1(OC)CC[C@@H](CC(=O)OC)OO1,53000,150,350,–,–,–
CCCCCC1(OC)CCC(CC(=O)OC)OO1 (stereo in doubt; 5),43000,120,360,–,–,–
